Test results from US20240199578A1, “SOLID STATE FORMS OF ZAVEGEPANT AND PROCESS FOR PREPARATION THEREOF” (TEVA CZECH INDUSTRIES S.R.O, priority 2021, published 2024).

Assay: Stability to polymorphic conversion (heating, grinding, high relative humidity)
Assay type: physicochemical
Conditions: when heated, during grinding and/or high relative humidity

Cc1cc(C[C@@H](NC(=O)N2CCC(c3cc4ccccc4[nH]c3=O)CC2)C(=O)N2CCN(C3CCN(C)CC3)CC2)cc2cn[nH]c12 [Form B]
stability to polymorphic conversion: particularly stable to polymorphic conversion
